Experimental data taken from patent US12215104B2, “Anti-biofilm compounds” (UNIVERSITY OF LOUISVILLE RESEARCH FOUNDATION, INC., priority 2018, dated 2025).
Where two headings read alike, the source gives them in different places.

Tests used:
[1] = tested on: P. gingivalis adherence to S. gordonii; experiment: Inhibition of P. gingivalis adherence to S. gordonii in two-species biofilm model; assay type: cell-based, P. gingivalis ATCC33277; S. gordonii DL-1
Text: (§1) To assess the functional activity of the click products, compounds 28-57 (Groups I and II) and 90-124 (Group III) were examined for inhibition of P. gingivalis adherence to S. gordonii using an established biofilm model system as described in the Section 4.2.1 [41]. For each compound tested, an IC50 value for adherence inhibition was approximated after quantifying the ratio of green to red fluorescence and these values are shown in Tables 2, 3 and 4. Compounds were classified as strong (IC50<10 μM), moderate (IC50=10-20 μM) or weak (IC50>20 μM) inhibitors of adherence. Twelve compounds were identified as strong inhibitors and an additional ten compounds were classified as moderate inhibitors. […] Compounds 54, 56, 93, 95, 100, 102, 103, and 115 were also tested to determine if they affect the growth of P. gingivalis or S. gordonii. […] The sulfoxide group does impart asymmetry to the molecule; however, the mixture of enantiomers, assuming the peracid oxidation was racemic, was not separated and bioassayed. The Group III active compounds (95-117) all contain the 1,3,5-trisubstituted-2,4,6-triazine modeled after the Katzenellenbogen rendering of an active motif whereby the key leucine residues which mimicked the VXXLL receptor box lie in a triangular arrangement. While the original iteration of the Katzenellenbogen VXXLL mimics were the hydrophobic 3,5-disubstituted-di-N-alkyamino-triazine motifs, we introduced the hydrophobic 2- and 4-(fluorophenyl)amino groups at positions 3 and 5 of the 2,4,6-triazine (See Compounds 102, 111, 115, 122).
(§2) P. gingivalis ATCC33277 was grown in reduced trypticase soy broth (Difco) supplemented with 0.5 percent yeast extract, 1 μg/mL menadione, and 5 μg/mL hemin. Twenty five milliliters of medium were reduced for 24 h under anaerobic conditions by equilibrating in an atmosphere consisting of 10% CO2, 10% H2, and 80% N2. Following equilibration, P. gingivalis was inoculated in the media and grown for 48 h at 37° C. under anaerobic conditions. S. gordonii DL-1 (1) was cultured aerobically without shaking in brain heart infusion (BHI) broth supplemented with 1 percent yeast extract for 16 hours at 37° C. For some compounds that inhibited P. gingivalis adherence to S. gordonii, we determined their affect the planktonic growth of P. gingivalis and S. gordonii. Broth cultures were grown as described above and compared to cultures grown in the absence of the compound. Cell density of each culture was determined by measuring the optical density at 600 nm (O.D.600 nm) after 24 h of growth. The percent growth inhibition/stimulation was calculated using the following equation: [(O.D.600 nm of the control/O.D.600 nm of the culture grown in the presence of compound)−1]×100.
Two species biofilms were formed essentially as previously described. To prepare bacterial cells for biofilm culture, 10 ml of an overnight S. gordonii culture was centrifuged at 5600 rpm for 5 min and the cell pellet was suspended in 1 mL sterile PBS. Subsequently, 20 μL of 5 mg/ml hexidium iodide (Molecular Probes) was added to the cell suspension and incubated for 15 min with gentle shaking at room temperature in the dark. The labeled cells were centrifuged as described above, washed with phosphate buffered saline (10 mM Na2HPO4, […], […], and 2.7 mM KCl, pH 7.2; [PBS]) and the cell pellet was suspended in PBS at a final O.D.600 nm of 0.8. Similarly, 10 mL of a 48 h culture of P. gingivalis was centrifuged at 5600 rpm for 15 min, the cell pellet was suspended in 1 mL PBS and 20 μl of 5(6)-carboxyfluorescein N-hydroxysuccinimide ester (4 mg/ml, Molecular Probes, Inc.) was added. After incubation for 30 min with gentle shaking at room temperature in the dark, the suspension was centrifuged and washed as described above and suspended in PBS at a final O.D.600 nm of 0.4. […]

[2] = tested on: P. gingivalis; experiment: Effect on planktonic growth of P. gingivalis; assay type: cell-based, P. gingivalis ATCC33277; settings: incubated overnight in the presence of 40 μM compound
Text: as §1, §2

[3] = tested on: S. gordonii; experiment: Effect on planktonic growth of S. gordonii; assay type: cell-based, S. gordonii DL-1; settings: incubated overnight in the presence of 40 μM compound
Text: as §1, §2

[4] = tested on: pre-existing 3-species biofilm; experiment: Disruption of a pre-existing 3-species biofilm in vitro; assay type: cell-based; settings: 20 μM
[5] = tested on: gingival keratinocytes; experiment: Induction of apoptosis in gingival keratinocytes; assay type: cell-based
[6] = Table 3, Group II click products, concentration reducing green to red fluorescence ratio by 50%, approximated
[7] = read-out: IC50 for inhibition of adherence of P. gingivalis to S. gordonii

SMILES: COc1ccccc1-c1cn(-c2ccc(S(=O)(=O)Cc3nc(-c4ccc(F)cc4)c(-c4ccc(F)cc4)o3)cc2)nn1 [Compound 54]
- IC50 [1, 6]: 21.2 µM
- effect on growth of planktonic cultures of P. gingivalis [2]: No effect on growth
- effect on growth of planktonic cultures of S. gordonii [3]: No effect on growth

SMILES: O=S(=O)(Cc1nc(-c2ccc(Cl)cc2)c(-c2ccc(Cl)cc2)o1)c1ccc(-n2cc(-c3ccc(F)cc3)nn2)cc1 [Compound 56]
- IC50 [1, 6]: 6.3 µM
- effect on growth of planktonic cultures of P. gingivalis [2]: No effect on growth
- effect on growth of planktonic cultures of S. gordonii [3]: No effect on growth

SMILES: CCN(CC)c1nc(-c2cn(-c3ccc(-c4nc(-c5ccc(F)cc5)c(-c5ccc(F)cc5)o4)cc3)nn2)nc(N(CC)CC)n1 [Compound 93]
- IC50 ([1]; Group III): 9.4 µM
- effect on growth of planktonic cultures of P. gingivalis [2]: No effect on growth
- effect on growth of planktonic cultures of S. gordonii [3]: No effect on growth

SMILES: CCN(CC)c1nc(-c2cn(-c3ccc(-c4nc(-c5ccc(Cl)cc5)c(-c5ccc(Cl)cc5)o4)cc3)nn2)nc(N(CC)CC)n1 [Compound 95]
- IC50 ([1]; Group III): 3.7 µM
- IC50 [1, 7]: 2.3 to 5.3 µM
- effect on growth of planktonic cultures of P. gingivalis [2]: No effect on growth
- effect on growth of planktonic cultures of S. gordonii [3]: No effect on growth
- disruption of pre-existing 3-species biofilm ([4]; time treated 1 h): 16.47
- disruption of pre-existing 3-species biofilm ([4]; time treated 2 h): 52.84
- disruption of pre-existing 3-species biofilm ([4]; time treated 3 h): 81
- early apoptosis ([5]; 5 μM, gingival keratinocytes): 5.02
- late apoptosis ([5]; 5 μM, gingival keratinocytes): 4.27
- live cells ([5]; 5 μM, gingival keratinocytes): 88.50
- early apoptosis ([5]; 20 μM, gingival keratinocytes): 4.89
- late apoptosis ([5]; 20 μM, gingival keratinocytes): 4.26
- live cells ([5]; 20 μM, gingival keratinocytes): 88.35
- early apoptosis ([5]; 40 μM, gingival keratinocytes): 3.80
- late apoptosis ([5]; 40 μM, gingival keratinocytes): 2.83
- live cells ([5]; 40 μM, gingival keratinocytes): 91.75

SMILES: Fc1ccccc1Nc1nc(Nc2ccccc2F)nc(-c2cn(-c3cccc(-c4nc(-c5ccccc5)c(-c5ccccc5)o4)c3)nn2)n1 [Compound 100]
- effect on growth of planktonic cultures of P. gingivalis [2]: No effect on growth
- effect on growth of planktonic cultures of S. gordonii [3]: No effect on growth

SMILES: Fc1ccc(-c2nc(-c3cccc(-n4cc(-c5nc(Nc6ccccc6F)nc(Nc6ccccc6F)n5)nn4)c3)oc2-c2ccc(F)cc2)cc1 [Compound 102]
- IC50 ([1]; Group III): 5 µM
- effect on growth of planktonic cultures of P. gingivalis [2]: No effect on growth
- effect on growth of planktonic cultures of S. gordonii [3]: No effect on growth

SMILES: Fc1ccc(-c2nc(-c3ccc(-n4cc(-c5nc(Nc6ccccc6F)nc(Nc6ccccc6F)n5)nn4)cc3)oc2-c2ccc(F)cc2)cc1 [Compound 103]
- IC50 ([1]; Group III): 12.3 µM
- effect on growth of planktonic cultures of P. gingivalis [2]: No effect on growth
- effect on growth of planktonic cultures of S. gordonii [3]: No effect on growth

SMILES: Fc1ccc(Nc2nc(Nc3ccc(F)cc3)nc(-c3cn(-c4cccc(-c5nc(-c6ccccc6)c(-c6ccccc6)o5)c4)nn3)n2)cc1 [Compound 111]
- IC50 ([1]; Group III): 4.3 µM
- IC50 [1, 7]: 2.3 to 5.3 µM
- disruption of pre-existing 3-species biofilm ([4]; time treated 1 h): 0.62
- disruption of pre-existing 3-species biofilm ([4]; time treated 2 h): 7.33
- disruption of pre-existing 3-species biofilm ([4]; time treated 3 h): 56.63
- early apoptosis ([5]; 5 μM, gingival keratinocytes): 4.96
- late apoptosis ([5]; 5 μM, gingival keratinocytes): 2.36
- live cells ([5]; 5 μM, gingival keratinocytes): 89.25
- early apoptosis ([5]; 20 μM, gingival keratinocytes): 5.06
- late apoptosis ([5]; 20 μM, gingival keratinocytes): 3.39
- live cells ([5]; 20 μM, gingival keratinocytes): 87.95
- early apoptosis ([5]; 60 μM, gingival keratinocytes): 5.60
- late apoptosis ([5]; 60 μM, gingival keratinocytes): 4.38
- live cells ([5]; 60 μM, gingival keratinocytes): 84.40

SMILES: Fc1ccc(Nc2nc(Nc3ccc(F)cc3)nc(-c3cn(-c4ccc(-c5nc(-c6ccc(F)cc6)c(-c6ccc(F)cc6)o5)cc4)nn3)n2)cc1 [Compound 115]
- IC50 ([1]; Group III): 2.3 µM
- IC50 [1, 7]: 2.3 to 5.3 µM
- effect on growth of planktonic cultures of P. gingivalis [2]: No effect on growth
- effect on growth of planktonic cultures of S. gordonii [3]: No effect on growth
- disruption of pre-existing 3-species biofilm ([4]; time treated 1 h): 15.26
- disruption of pre-existing 3-species biofilm ([4]; time treated 2 h): 45.62
- disruption of pre-existing 3-species biofilm ([4]; time treated 3 h): 76.06
- early apoptosis ([5]; 5 μM, gingival keratinocytes): 3.89
- late apoptosis ([5]; 5 μM, gingival keratinocytes): 4.21
- live cells ([5]; 5 μM, gingival keratinocytes): 87.85
- early apoptosis ([5]; 10 μM, gingival keratinocytes): 4.07
- late apoptosis ([5]; 10 μM, gingival keratinocytes): 2.47
- live cells ([5]; 10 μM, gingival keratinocytes): 91.25
- early apoptosis ([5]; 20 μM, gingival keratinocytes): 4.06
- late apoptosis ([5]; 20 μM, gingival keratinocytes): 2.80
- live cells ([5]; 20 μM, gingival keratinocytes): 91.20

SMILES: Fc1ccc(Nc2nc(Nc3ccc(F)cc3)nc(-c3cn(-c4ccccc4-c4nc(-c5ccc(Cl)cc5)c(-c5ccc(Cl)cc5)o4)nn3)n2)cc1 [Compound 116]
- IC50 ([1]; Group III): > 40 µM

SMILES: Fc1ccc(Nc2nc(Nc3ccc(F)cc3)nc(-c3cn(-c4cccc(-c5nc(-c6ccc(Cl)cc6)c(-c6ccc(Cl)cc6)o5)c4)nn3)n2)cc1 [Compound 117]
- IC50 ([1]; Group III): 27.8 µM
- IC50 [1, 7]: 2.3 to 5.3 µM

SMILES: Fc1ccc(Nc2nc(Nc3ccc(F)cc3)nc(-c3cn(-c4ccc(-c5nc(-c6ccc(Cl)cc6)c(-c6ccc(Cl)cc6)o5)cc4)nn3)n2)cc1 [Compound 118]
- IC50 ([1]; Group III): 13.3 µM

SMILES: COc1ccc(-c2nc(-c3ccccc3-n3cc(-c4nc(Nc5ccc(F)cc5)nc(Nc5ccc(F)cc5)n4)nn3)oc2-c2ccc(OC)cc2)cc1 [Compound 119]
- IC50 ([1]; Group III): > 60 µM

SMILES: COc1ccc(-c2nc(-c3cccc(-n4cc(-c5nc(Nc6ccc(F)cc6)nc(Nc6ccc(F)cc6)n5)nn4)c3)oc2-c2ccc(OC)cc2)cc1 [Compound 120]
- IC50 ([1]; Group III): > 60 µM

SMILES: COc1ccc(-c2nc(-c3ccc(-n4cc(-c5nc(Nc6ccc(F)cc6)nc(Nc6ccc(F)cc6)n5)nn4)cc3)oc2-c2ccc(OC)cc2)cc1 [Compound 121]
- IC50 ([1]; Group III): > 60 µM

SMILES: Fc1ccc(Nc2nc(Nc3ccc(F)cc3)nc(-c3cn(-c4ccccc4-c4nc(-c5ccco5)c(-c5ccco5)o4)nn3)n2)cc1 [Compound 122]
- IC50 ([1]; Group III): 2.4 µM
- disruption of pre-existing 3-species biofilm ([4]; time treated 1 h): 0
- disruption of pre-existing 3-species biofilm ([4]; time treated 2 h): 25.71
- disruption of pre-existing 3-species biofilm ([4]; time treated 3 h): 68.82
- early apoptosis ([5]; 5 μM, gingival keratinocytes): 4.50
- late apoptosis ([5]; 5 μM, gingival keratinocytes): 3.95
- live cells ([5]; 5 μM, gingival keratinocytes): 88.30
- early apoptosis ([5]; 20 μM, gingival keratinocytes): 5.93
- late apoptosis ([5]; 20 μM, gingival keratinocytes): 2.92
- live cells ([5]; 20 μM, gingival keratinocytes): 88.80
- early apoptosis ([5]; 60 μM, gingival keratinocytes): 7.54
- late apoptosis ([5]; 60 μM, gingival keratinocytes): 4.59
- live cells ([5]; 60 μM, gingival keratinocytes): 83.65

SMILES: Fc1ccc(Nc2nc(Nc3ccc(F)cc3)nc(-c3cn(-c4cccc(-c5nc(-c6ccco6)c(-c6ccco6)o5)c4)nn3)n2)cc1 [Compound 123]
- IC50 ([1]; Group III): 8 µM

SMILES: Fc1ccc(Nc2nc(Nc3ccc(F)cc3)nc(-c3cn(-c4ccc(-c5nc(-c6ccco6)c(-c6ccco6)o5)cc4)nn3)n2)cc1 [Compound 124]
- IC50 ([1]; Group III): 7.8 µM

SMILES: OO [Compound H2O2, H2O2, reference compound]
- early apoptosis ([5]; 4 mM 1 h, positive control): 35.60
- late apoptosis ([5]; 4 mM 1 h, positive control): 41.50
- live cells ([5]; 4 mM 1 h, positive control): 11.30
